Reference: publication PMC12724307, “Characterization of the initial degradation mechanism involved in C-glycosylated isoflavone puerarin in soil microorganism” (Applied and Environmental Microbiology, 2025)

Tested on: T1, PurA
T1 construct: ORF of 1,551 nt, pET24a(+), His-tagged, E. coli Rosetta2 (DE3), Ni-column; calculated 55,563 Da; monomer
Test: peroxidase-coupled H2O2 assay (DAOS/4-aminoantipyrine)
Type: biochemical, Paenarthrobacter sp. No. 37
Details: oxygen as electron acceptor; Tris-HCl pH 8.0; 28°C; apparent steady-state constants

`O=c1c(-c2ccc(O)cc2)coc2c([C@@H]3O[C@H](CO)[C@@H](O)[C@H](O)[C@H]3O)c(O)ccc12` [compound 1, puerarin] showed a Km of 43.4 ± 6.6 µM.
